Measured values: ChEMBL document CHEMBL1122193, “Design of potent and selective antagonists of the vasopressor responses to arginine-vasopressin” (J Med Chem, 1982)
Residues, ends and D or L forms follow the SMILES beside them.

Experiments:
Rattus norvegicus [1] = assay: Compound evaluated in vivo and negative logarithm of effective dose divided by estimated volume of distribution (67 mL/kg) determined; assay type: ADME, organism-based; details: read-out: pA2 (converted)
Rattus norvegicus [2] = assay: Antidiuretic activity in intravenous antidiuretic assay in rats under ethanol anesthesia; assay type: functional, Urine
Rattus norvegicus [3] = organism: Rattus norvegicus; assay: In vitro anti-oxytocic potency was recorded in presence of 0.5 mM Mg2+ in rat uteri; assay type: functional; details: read-out: pA2 (converted)
Rattus norvegicus [4] = organism: Rattus norvegicus; assay: Effective dose for anti-vasopressor potency to reduce the response to 2x units of agonist to equal the response to 1x units; assay type: functional
Rattus norvegicus [5] = organism: Rattus norvegicus; assay: In vitro anti-oxytocic potency was recorded in absence of Mg2+ in rat uteri; assay type: functional; details: read-out: pA2 (converted)

SMILES	Kb (Rattus norvegicus [1]) [nM]	Antidiuretic activity (Rattus norvegicus [2]) [U/mg]	Kb (Rattus norvegicus [3]) [nM]	Effective dose (Rattus norvegicus [4]) [nM/kg]	Kb (Rattus norvegicus [5]) [nM]
CCC1(CC)CC(=O)N[C@@H](Cc2ccc(O)cc2)C(=O)N[C@H](Cc2ccccc2)C(=O)N[C@@H](CCC(N)=O)C(=O)N[C@H](CC(N)=O)C(=O)N[C@@H](C(=O)N2CCC[C@H]2C(=O)N[C@H](CCCN=C(N)N)C(=O)NCC(N)=O)CSS1	11	0.06	200	0.81	112
NC(=O)CC[C@@H]1NC(=O)[C@H](Cc2ccccc2)NC(=O)[C@H](Cc2ccc(O)cc2)NC(=O)CC2(CCCCC2)SSC[C@@H](C(=O)N2CCC[C@H]2C(=O)N[C@@H](CCCN=C(N)N)C(=O)NCC(N)=O)NC(=O)[C@H](CC(N)=O)NC1=O [listing 1 of 2 here]			53.7		47.9
NC(=O)CC[C@@H]1NC(=O)[C@H](Cc2ccccc2)NC(=O)[C@H](Cc2ccc(O)cc2)NC(=O)CC2(CCCCC2)SSC[C@@H](C(=O)N2CCC[C@H]2C(=O)N[C@@H](CCCN=C(N)N)C(=O)NCC(N)=O)NC(=O)[C@H](CC(N)=O)NC1=O [listing 2 of 2 here]				0.34	
NC(=O)CC[C@@H]1NC(=O)[C@H](Cc2ccccc2)NC(=O)[C@H](Cc2ccc(O)cc2)NC(=O)CC2(CCCCC2)SSC[C@@H](C(=O)N2CCC[C@H]2C(=O)N[C@H](CCCN=C(N)N)C(=O)NCC(N)=O)NC(=O)[C@H](CC(N)=O)NC1=O [listing 1 of 2 here]	3.02		257		107
NC(=O)CC[C@@H]1NC(=O)[C@H](Cc2ccccc2)NC(=O)[C@H](Cc2ccc(O)cc2)NC(=O)CC2(CCCCC2)SSC[C@@H](C(=O)N2CCC[C@H]2C(=O)N[C@H](CCCN=C(N)N)C(=O)NCC(N)=O)NC(=O)[C@H](CC(N)=O)NC1=O [listing 2 of 2 here]		0.31		0.2	
CC(C)[C@@H]1NC(=O)[C@H](Cc2ccccc2)NC(=O)[C@H](Cc2ccc(O)cc2)NC(=O)CC(C)(C)SSC[C@@H](C(=O)N2CCC[C@H]2C(=O)N[C@H](CCCN=C(N)N)C(=O)NCC(N)=O)NC(=O)[C@H](CC(N)=O)NC1=O [listing 1 of 2 here]			75.9		
CC(C)[C@@H]1NC(=O)[C@H](Cc2ccccc2)NC(=O)[C@H](Cc2ccc(O)cc2)NC(=O)CC(C)(C)SSC[C@@H](C(=O)N2CCC[C@H]2C(=O)N[C@H](CCCN=C(N)N)C(=O)NCC(N)=O)NC(=O)[C@H](CC(N)=O)NC1=O [listing 2 of 2 here]		123		1.1	
CCC1(CC)CC(=O)N[C@@H](Cc2ccc(O)cc2)C(=O)N[C@H](Cc2ccccc2)C(=O)N[C@@H](C(C)C)C(=O)N[C@H](CC(N)=O)C(=O)N[C@@H](C(=O)N2CCC[C@H]2C(=O)N[C@@H](CCCN=C(N)N)C(=O)NCC(N)=O)CSS1	5.13	1.5	21.9	0.38	47.9
CC1(C)CC(=O)N[C@@H](Cc2ccc(O)cc2)C(=O)N[C@H](Cc2ccccc2)C(=O)N[C@@H](CCC(N)=O)C(=O)N[C@H](CC(N)=O)C(=O)N[C@@H](C(=O)N2CCC[C@H]2C(=O)N[C@H](CCCN=C(N)N)C(=O)NCC(N)=O)CSS1	35.5	5.8	195	2.5	13.5
CCC1(CC)CC(=O)N[C@@H](Cc2ccc(O)cc2)C(=O)N[C@H](Cc2ccccc2)C(=O)N[C@@H](C(C)C)C(=O)N[C@H](CC(N)=O)C(=O)N[C@@H](C(=O)N2CCC[C@H]2C(=O)N[C@H](CCCN=C(N)N)C(=O)NCC(N)=O)CSS1	6.61	0.71	61.7	0.35	51.3
CC1(C)CC(=O)N[C@@H](Cc2ccc(O)cc2)C(=O)N[C@@H](Cc2ccccc2)C(=O)N[C@@H](CCC(N)=O)C(=O)N[C@@H](CC(N)=O)C(=O)N[C@H](C(=O)N2CCC[C@H]2C(=O)N[C@@H](CCCN=C(N)N)C(=O)NCC(N)=O)CSS1 [listing 1 of 2 here]			1170		
CC1(C)CC(=O)N[C@@H](Cc2ccc(O)cc2)C(=O)N[C@@H](Cc2ccccc2)C(=O)N[C@@H](CCC(N)=O)C(=O)N[C@@H](CC(N)=O)C(=O)N[C@H](C(=O)N2CCC[C@H]2C(=O)N[C@@H](CCCN=C(N)N)C(=O)NCC(N)=O)CSS1 [listing 2 of 2 here]				3.2	
CCC1(CC)CC(=O)N[C@@H](Cc2ccc(O)cc2)C(=O)N[C@@H](Cc2ccccc2)C(=O)N[C@@H](CCC(N)=O)C(=O)N[C@@H](CC(N)=O)C(=O)N[C@H](C(=O)N2CCC[C@H]2C(=O)N[C@@H](CCCN=C(N)N)C(=O)NCC(N)=O)CSS1 [listing 1 of 2 here]	4.37		69.2		50.1
CCC1(CC)CC(=O)N[C@@H](Cc2ccc(O)cc2)C(=O)N[C@@H](Cc2ccccc2)C(=O)N[C@@H](CCC(N)=O)C(=O)N[C@@H](CC(N)=O)C(=O)N[C@H](C(=O)N2CCC[C@H]2C(=O)N[C@@H](CCCN=C(N)N)C(=O)NCC(N)=O)CSS1 [listing 2 of 2 here]		0.38		0.32	
CC(C)[C@@H]1NC(=O)[C@@H](Cc2ccccc2)NC(=O)[C@H](Cc2ccc(O)cc2)NC(=O)CC(C)(C)SSC[C@H](C(=O)N2CCC[C@H]2C(=O)N[C@@H](CCCN=C(N)N)C(=O)NCC(N)=O)NC(=O)[C@@H](CC(N)=O)NC1=O	12	312	19.1	0.84	8.13
CC(C)[C@@H]1NC(=O)[C@H](Cc2ccccc2)NC(=O)[C@H](Cc2ccc(O)cc2)NC(=O)CC2(CCCCC2)SSC[C@@H](C(=O)N2CCC[C@H]2C(=O)N[C@@H](CCCN=C(N)N)C(=O)NCC(N)=O)NC(=O)[C@H](CC(N)=O)NC1=O (HELM PEPTIDE1{Y.F.V.N.C.P.R.G.[am]}|CHEM1{[O=C(CC1(S[*:2])CCCCC1)[*:1]]}$PEPTIDE1,CHEM1,1:R1-1:R1|PEPTIDE1,CHEM1,5:R3-1:R2$$$V2.0)		0.32		0.76	
CC(C)[C@@H]1NC(=O)[C@H](Cc2ccccc2)NC(=O)[C@H](Cc2ccc(O)cc2)NC(=O)CC2(CCCCC2)SSC[C@@H](C(=O)N2CCC[C@H]2C(=O)N[C@H](CCCN=C(N)N)C(=O)NCC(N)=O)NC(=O)[C@H](CC(N)=O)NC1=O (HELM PEPTIDE1{Y.F.V.N.C.P.[dR].G.[am]}|CHEM1{[O=C(CC1(S[*:2])CCCCC1)[*:1]]}$PEPTIDE1,CHEM1,1:R1-1:R1|PEPTIDE1,CHEM1,5:R3-1:R2$$$V2.0) [listing 1 of 2 here]			589		234
CC(C)[C@@H]1NC(=O)[C@H](Cc2ccccc2)NC(=O)[C@H](Cc2ccc(O)cc2)NC(=O)CC2(CCCCC2)SSC[C@@H](C(=O)N2CCC[C@H]2C(=O)N[C@H](CCCN=C(N)N)C(=O)NCC(N)=O)NC(=O)[C@H](CC(N)=O)NC1=O (HELM PEPTIDE1{Y.F.V.N.C.P.[dR].G.[am]}|CHEM1{[O=C(CC1(S[*:2])CCCCC1)[*:1]]}$PEPTIDE1,CHEM1,1:R1-1:R1|PEPTIDE1,CHEM1,5:R3-1:R2$$$V2.0) [listing 2 of 2 here]				1.5	
